Source: PubChem BioAssay AID248 (DTP/NCI, 2004)
Where “and” joins values, the source holds several entries; their conditions need not be identical. Identical values can stand only once. Toxic doses and inconclusive results are not listed.

Tested on: L1210 leukemia ip in BDF1 mice, survival T/C
Test: NCI In Vivo Anticancer Drug Screen. Data for tumor model L1210 Leukemia (intraperitoneal) in B6D2F1 (BDF1) mice
Conditions: endpoint: mean survival time, higher = longer survival
How it was run: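 Ratio derived from survival: compound-dosed mice over vehicle-dosed mice, all bearing a transplantable tumor.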

[1] = dose: 400.0 mg/kg/injection, schedule: Q01DX009 (ip), vehicle: saline with Tween-80
[2] = dose: 100.0 mg/kg/injection, schedule: Q04DX003 (ip), vehicle: Klucel (hydroxypropylcellulose) (HPC)
[3] = dose: 200.0 mg/kg/injection, schedule: Q04DX003 (ip), vehicle: Klucel (hydroxypropylcellulose) (HPC)
[4] = dose: 400.0 mg/kg/injection, schedule: Q04DX003 (ip), vehicle: Klucel (hydroxypropylcellulose) (HPC)
[5] = dose: 100.0 mg/kg/injection, schedule: Q01DX009 (ip), vehicle: Klucel (hydroxypropylcellulose) (HPC)
[6] = dose: 200.0 mg/kg/injection, schedule: Q01DX009 (ip), vehicle: Klucel (hydroxypropylcellulose) (HPC)
[7] = dose: 100.0 mg/kg/injection, schedule: Q01DX009 (ip), vehicle: saline
[8] = dose: 200.0 mg/kg/injection, schedule: Q01DX009 (ip), vehicle: saline
[9] = dose: 400.0 mg/kg/injection, schedule: Q01DX009 (ip), vehicle: saline

## CC1CN1C(=O)OCCOC(=O)N1CC1C (stereo not drawn)
dose: 200.0 mg/kg/injection, schedule: Q01DX Z (ip), vehicle: saline
  T/C: 108 % of control
dose: 444.0 mg/kg/injection, schedule: Q01DX009 (ip), vehicle: saline
  T/C: 104 % of control
dose: 450.0 mg/kg/injection, schedule: Q01DX Z (ip), vehicle: saline
  T/C: 188 % of control
dose: 666.0 mg/kg/injection, schedule: Q01DX009 (ip), vehicle: saline
  T/C: 107 % of control
dose: 675.0 mg/kg/injection, schedule: Q01DX Z (ip), vehicle: saline
  T/C: 195 % of control
dose: 750.0 mg/kg/injection, schedule: Q01DX001 (ip), vehicle: saline
  T/C: 117 % of control
dose: 1000.0 mg/kg/injection, schedule: Q01DX009 (ip), vehicle: saline
  T/C: 115 % of control
dose: 1500.0 mg/kg/injection, schedule: Q01DX001 (ip), vehicle: saline
  T/C: 106 % of control
dose: 1500.0 mg/kg/injection, schedule: Q01DX009 (ip), vehicle: saline
  T/C: 96 % of control

## CC(=O)N(C)c1ccc(NC(=S)NC(=O)c2cccc([N+](=O)[O-])c2)cc1
dose: 25.0 mg/kg/injection, schedule: Q01DX009 (ip), vehicle: saline with Tween-80
  T/C: 97 % of control and 109 % of control
dose: 50.0 mg/kg/injection, schedule: Q01DX009 (ip), vehicle: saline with Tween-80
  T/C: 98 % of control and 108 % of control
dose: 100.0 mg/kg/injection, schedule: Q01DX001 (ip), vehicle: saline with Tween-80
  T/C: 97 % of control
dose: 100.0 mg/kg/injection, schedule: Q04DX002 (ip), vehicle: saline
  T/C: 93 % of control and 101 % of control
dose: 200.0 mg/kg/injection, schedule: Q01DX001 (ip), vehicle: saline with Tween-80
  T/C: 92 % of control
dose: 200.0 mg/kg/injection, schedule: Q04DX002 (ip), vehicle: saline
  T/C: 96 % of control and 97 % of control
dose: 400.0 mg/kg/injection, schedule: Q01DX001 (ip), vehicle: saline with Tween-80
  T/C: 92 % of control
[1]
  T/C: 93 % of control and 105 % of control
dose: 400.0 mg/kg/injection, schedule: Q04DX002 (ip), vehicle: saline
  T/C: 101 % of control and 104 % of control

## CC1(C)Oc2nc(N)nc(N)c2C1c1ccc(Cl)cc1 (stereo not drawn)
[2]
  T/C: 106 % of control
[3]
  T/C: 97 % of control
[4]
  T/C: 103 % of control

## COc1ccc(NC(=O)Nc2ccc(F)cc2)c(OC)c1
[5]
  T/C: 91 % of control
[2]
  T/C: 100 % of control
[6]
  T/C: 100 % of control
[3]
  T/C: 91 % of control
dose: 400.0 mg/kg/injection, schedule: Q01DX009 (ip), vehicle: Klucel (hydroxypropylcellulose) (HPC)
  T/C: 96 % of control
[4]
  T/C: 100 % of control

## Cc1c([N+](=O)[O-])cc(C(C)(C)C)c(OC(=O)Nc2ccc(Cl)cc2)c1[N+](=O)[O-]
[2]
  T/C: 95 % of control
[3]
  T/C: 92 % of control

## CCN(CC)c1ccc(C(=C(c2ccc(N(CC)CC)cc2)c2ccc(N(CC)CC)cc2)c2ccc(N(CC)CC)cc2)cc1
dose: 50.0 mg/kg/injection, schedule: Q01DX009 (ip), vehicle: Klucel (hydroxypropylcellulose) (HPC)
  T/C: 88 % of control
[5]
  T/C: 101 % of control
[2]
  T/C: 90 % of control
[6]
  T/C: 91 % of control
[3]
  T/C: 101 % of control

## COC(=O)C(NC(=O)OCc1ccccc1)C(=O)OC
dose: 100.0 mg/kg/injection, schedule: Q04DX003 (ip), vehicle: saline with Tween-80
  T/C: 100 % of control
dose: 200.0 mg/kg/injection, schedule: Q04DX003 (ip), vehicle: saline with Tween-80
  T/C: 100 % of control
dose: 400.0 mg/kg/injection, schedule: Q04DX003 (ip), vehicle: saline with Tween-80
  T/C: 98 % of control

## CNC(=O)c1cn(C2OC(CO)C(O)C2O)c2ncnc(N)c12 (stereo not drawn)
dose: 88.0 mg/kg/injection, schedule: Q01DX001 (ip), vehicle: water
  T/C: 120 % of control
dose: 400.0 mg/kg/injection, schedule: Q01DX001 (ip), vehicle: water
  T/C: 117 % of control

## NNc1ccccc1-c1nc(N)nc(N)n1
dose: 9.38 mg/kg/injection, schedule: Q01DX001 (ip), vehicle: other
  T/C: 109 % of control
dose: 18.75 mg/kg/injection, schedule: Q01DX001 (ip), vehicle: other
  T/C: 112 % of control
dose: 37.5 mg/kg/injection, schedule: Q01DX001 (ip), vehicle: other
  T/C: 118 % of control

## Cc1ccc(N2CCNCC2)cc1Cl
dose: 12.5 mg/kg/injection, schedule: Q01DX009 (ip), vehicle: saline
  T/C: 100 % of control
dose: 25.0 mg/kg/injection, schedule: Q01DX009 (ip), vehicle: saline
  T/C: 91 % of control
dose: 50.0 mg/kg/injection, schedule: Q01DX009 (ip), vehicle: saline
  T/C: 102 % of control
dose: 50.0 mg/kg/injection, schedule: Q04DX003 (ip), vehicle: saline
  T/C: 102 % of control

## O=C(CBr)NC(Cc1ccccc1)C(=O)O (stereo not drawn)
dose: 75.0 mg/kg/injection, schedule: Q01DX001 (ip), vehicle: saline
  T/C: 94 % of control and 90 % of control
dose: 150.0 mg/kg/injection, schedule: Q01DX001 (ip), vehicle: saline
  T/C: 103 % of control
dose: 300.0 mg/kg/injection, schedule: Q01DX001 (ip), vehicle: saline
  T/C: 90 % of control

## C=C[CH2][Sn]([Br])([c]1ccccc1)[c]1ccccc1
dose: 1.56 mg/kg/injection, schedule: Q01DX009 (ip), vehicle: saline with Tween-80
  T/C: 89 % of control
dose: 3.13 mg/kg/injection, schedule: Q01DX009 (ip), vehicle: saline with Tween-80
  T/C: 92 % of control

## CCCCCCCCCC(=O)CCCCCCC
dose: 25.0 mg/kg/injection, schedule: Q01DX009 (ip), vehicle: other
  T/C: 105 % of control
dose: 50.0 mg/kg/injection, schedule: Q01DX009 (ip), vehicle: other
  T/C: 102 % of control
dose: 100.0 mg/kg/injection, schedule: Q01DX009 (ip), vehicle: other
  T/C: 95 % of control and 97 % of control
dose: 400.0 mg/kg/injection, schedule: Q01DX009 (ip), vehicle: other
  T/C: 98 % of control

## C[PH+](c1ccccc1)c1ccccc1.C[PH+](c1ccccc1)c1ccccc1.[Cl][Pd][Cl]
dose: 75.0 mg/kg/injection, schedule: Q04DX003 (ip), vehicle: saline
  T/C: 112 % of control
dose: 150.0 mg/kg/injection, schedule: Q04DX003 (ip), vehicle: saline
  T/C: 107 % of control
dose: 300.0 mg/kg/injection, schedule: Q04DX003 (ip), vehicle: saline
  T/C: 104 % of control

## C=CCc1cc(CNC(C)C)c(O)c(OC)c1
dose: 25.0 mg/kg/injection, schedule: Q04DX003 (ip), vehicle: Klucel (hydroxypropylcellulose) (HPC)
  T/C: 96 % of control
dose: 50.0 mg/kg/injection, schedule: Q04DX003 (ip), vehicle: Klucel (hydroxypropylcellulose) (HPC)
  T/C: 88 % of control
[2]
  T/C: 101 % of control and 92 % of control

## CN(N)C(=N)N
[7]
  T/C: 102 % of control
[8]
  T/C: 101 % of control
[9]
  T/C: 96 % of control

## Cc1ccc(S(=O)(=O)Nc2cccc3c(NS(=O)(=O)c4ccc(C)cc4)cccc23)cc1
dose: 100.0 mg/kg/injection, schedule: Q01DX009 (ip), vehicle: saline with Tween-80
  T/C: 96 % of control
dose: 200.0 mg/kg/injection, schedule: Q01DX009 (ip), vehicle: saline with Tween-80
  T/C: 94 % of control
[1]
  T/C: 100 % of control

## COc1ccc(CNCC(=O)O)cc1
[7]
  T/C: 100 % of control
dose: 100.0 mg/kg/injection, schedule: Q04DX003 (ip), vehicle: saline
  T/C: 96 % of control
[8]
  T/C: 100 % of control
dose: 200.0 mg/kg/injection, schedule: Q04DX003 (ip), vehicle: saline
  T/C: 98 % of control
[9]
  T/C: 105 % of control
dose: 400.0 mg/kg/injection, schedule: Q04DX003 (ip), vehicle: saline
  T/C: 96 % of control

## CS(=O)(=O)N(c1ccccc1)c1ccccc1N
dose: 100.0 mg/kg/injection, schedule: Q01DX001 (ip), vehicle: other
  T/C: 94 % of control
dose: 200.0 mg/kg/injection, schedule: Q01DX001 (ip), vehicle: other
  T/C: 107 % of control
dose: 400.0 mg/kg/injection, schedule: Q01DX001 (ip), vehicle: other
  T/C: 88 % of control

## CC1([N+](=O)[O-])COP(=O)(NCc2cccnc2)OC1 (stereo not drawn)
dose: 50.0 mg/kg/injection, schedule: Q01DX001 (ip), vehicle: carboxymethylcellulose (CMC)
  T/C: 103 % of control
dose: 100.0 mg/kg/injection, schedule: Q01DX001 (ip), vehicle: carboxymethylcellulose (CMC)
  T/C: 95 % of control
dose: 200.0 mg/kg/injection, schedule: Q01DX001 (ip), vehicle: carboxymethylcellulose (CMC)
  T/C: 113 % of control
dose: 400.0 mg/kg/injection, schedule: Q01DX001 (ip), vehicle: carboxymethylcellulose (CMC)
  T/C: 95 % of control

## C[N+](C)(C)C1(c2ccc(F)cc2)CCCCC1
dose: 5.0 mg/kg/injection, schedule: Q01DX001 (ip), vehicle: saline
  T/C: 111 % of control
dose: 10.0 mg/kg/injection, schedule: Q01DX001 (ip), vehicle: saline
  T/C: 105 % of control
dose: 20.0 mg/kg/injection, schedule: Q01DX001 (ip), vehicle: saline
  T/C: 111 % of control
